Source: patent publication US10118938B2, “Arsenoplatin anti-cancer agents” (priority 2012, dated 2018)

What was measured:
[1] = system: A2780^CP ovarian cancer cell line (cisplatin resistant); assay type: cell-based, human; conditions: for IC50: ovarian cisplatin resistant, MTS after 72 hours, ±SD
Method: (§1) The MDA-MB-231-mCherry breast cancer cells were cultured in Dulbecco's modified Eagle's medium (DMEM) and supplemented with 5% heat-inactivated fetal bovine serum (FBS), 50 units/ml penicillin, 50 μg/ml streptomycin, 2 mM L-glutamine, and 1 μg/ml blasticidin S (Sigma). The A2780 and A2780^CP ovarian cancer cell lines and the multiple myeloma RPMI 8226 cell line were cultured in RPMI 1640 medium supplemented with 10% FBS, 50 units/ml penicillin, 50 μg/ml streptomycin, 2 mM L-glutamine. The U-87 and HTC-116 cancer cell lines were cultured without antibiotics. Cells were grown at 37° C. in a humidified atmosphere of 5% of CO2.
(§2) B. In Vitro Cytotoxicity Assay for MDA-MB-231mCherry, A270 and A2780CP Cancer Cell Lines.
(§3) The cytotoxicities of compound (1), cisplatin, and As2O3 were assessed by MTS assay using the CellTiter 96 Aqueous MTS (Promega). The 100 μL aliquots of cell suspension (1.0×10^5 cells/ml) were plated in 96-well tissue culture plates in the incubator overnight at 37° C. in a humidified atmosphere of 5% of CO2. The serial dilutions of compound (1), cisplatin, and As2O3 in appropriate media were transferred to the cells. The MTS solution (20 μL) was added after 72 hours and the absorbance was measured at 495 nm 4 hours later. Sigmoidal dose response curves were plotted using the GraphPad Prism software. The IC50 values were obtained on at least three independent experiments. In vitro cytotoxicity assay for U-87 and HTC-116 cancer cell line. For the experiment, cells were cultured in RPMI 1640 medium with 5% FBS and 2 mM L-glutamine. […] HCT-116 and U-87 cancer cell were plated in 96 well plates. The cells were plated in four replicates. The densities of the cells were 5000 and 10000 per well in 90 μL for HTC-116 and U-87, respectively. […] The cells were treated with 100, 10, 1, 0.1 0.01, 0.001, 0.0001, 0.00001 and 0.000001 μM of compound (1), cisplatin, and As2O3. After 48 hours post drug treatment all plates were allowed to equilibrate for 30 minutes at room temperature from incubator. Addition of 100 μL of Cell Titer Glow (Promega, Fitchburg, Wis.) reagent was added to the wells. The plates were shaken for 2 minutes and allowed to sit for activation prior to reading for 10 minutes. Plates were read on Biotek Synergy H1 (Biotek, Wenooski, Vt.) reader capable of luminescence detection.

[2] = system: MDA-MB-231-mCherry breast cancer cells; assay type: cell-based, human; conditions: triple negative breast cancer; MTS after 72 hours; ±SD
Method: as §1, §2, §3

glioblastoma U-87 cells = assay type: cell-based, human; conditions: Cell Titer Glow, 48 hours post drug treatment, ±SD
Method: as §1, §3

colon HCT-116 cells = assay type: cell-based, human; conditions: Cell Titer Glow, 48 hours post drug treatment, ±SD, read-out: IC50 values in μM (±SD), HTC−116
Method: as §1, §3

[3] = system: multiple myeloma RPMI 8226 cell line; assay type: cell-based, human; conditions: ±SD
Method: as §1, §3

[4] = system: A2780 ovarian cancer cell line (cisplatin sensitive); assay: In vitro cytotoxicity assay (MTS), A2780; assay type: cell-based, human; conditions: MTS after 72 hours, ±SD
Method: as §1, §2
as §3, with “After 48 hours post drug treatment all plates were allowed to equilibrate for 30 minutes at room temperature from incubator. Addition of 100 μL of Cell Titer Glow (Promega, Fitchburg, Wis.) reagent was added to the wells.” left out

[5] = Linkage isomerization in [D6]DMSO solution by NMR; assay type: physicochemical; conditions: compound (5) dissolved in [D6]DMSO, room temperature; S-isomer = compound (5), N-isomer = compound (6)
Source text: Solution NMR and X-ray crystallography confirm that the Pt—As bond remained intact. Crystals suitable for a single crystal X-ray analysis were obtained when compound (5) was synthesized in a 1:1 water/methanol mixture, where the SCN^− ion is bound to Pt(II) through the sulfur atom (FIG. 1D). […] Assignments of chemical shifts for the S- and N-bound isomers signals are based on multidimensional ^195Pt and ^15N NMR spectroscopy on sample of compound (5) which is synthesized using thiocyanate enriched in ^13C and ^15N at 99% (FIG. 2).
Cisplatin, K2[PtCl4], DMSO, methanol, acetonitrile, propionitrile and As2O3 were purchased from Sigma-Aldrich and used without further purification. Media for the cell cultures and all other cell supplements were purchased from Invitrogen. The following spectrometers were used: NMR: Bruker Avance-III 600 and 500 MHz; chemical shifts (^1H, ^13C) were referenced to tetramethylsilane at 0.000 ppm ^1H and ^13C if it was present, and to residual solvent signal for samples in which TMS was absent (for [D6]DMSO, δH=2.50 ppm and δC=39.5 ppm). […] UV/Vis electron absorbance measurements were performed on a Perkin Elmer Lambda 650 spectrophotometer. […]

[6] = Solubility of the isolated complex; assay type: physicochemical
Method: Cisplatin (300 mg, 1.00 mmol) or K2[PtCl4] (415 mg, 1.00 mmol) was added to 125 cm^3 of 9:1 CH3CN/H2O (v/v). The mixture was stirred at 90° C. Once the platinum compound was dissolved, 396 mg As2O3(2.00 mmol) was added to the solution, and the reaction mixture was stirred at 90° C. for 72 hours. The resulting mixture was filtered, and the filtrate was left at room temperature in a glass beaker for approximately 4 weeks until crystals formed. Crystals suitable for a single crystal X-ray analysis were retrieved from solution. The solution was filtered, washed with CH3CN:H2O (9:1 mixture), and the obtained crystals were dried in a dessicator. Yield 350 mg product (75%; 23% when cisplatin is used). […] Elemental analysis (% calcd., found for C7H18.5AsClN3.5O6Pt): C (15.20, 15.24), H (3.37, 3.36), N (8.86, 8.69). NMR: ^1H NMR (600 MHz, [D6]DMSO, 25° C.) δ: 8.91 (s, 2H—OH), 8.15 (s, 2H—NH), 2.13 (s, 6H—CH3). ^13C NMR (150 MHz, [D6]DMSO, 25° C.): δ 172.1 (C-1, C-3), 171.4 (C-5, C-7), 22.5 (C-6, C-8), 16.6 (C-2, C-4). ^15N NMR (60 MHz, from the ^1H-^15N HSQC, [D6]DMSO, referenced to ^15NH4Cl, 25° C.): δ 106.4 (N-1, N-2), ^195Pt NMR (129 MHz, [D6]DMSO, 25° C.), δ: −3589 (s, 1Pt) ppm. UV/Vis ((methanol-water=1:1): λ1=283 nm (ε=4062 dm^3 mol^−1 cm^−1), λ2=247 nm (ε=3621 dm^3 mol^−1 cm^−1), sh. 260 nm.
LC/ESI-MS data were recorded every 24 hours. The color gradually turned yellow and ultimately colorless over the 4 day period. The resulting mixture was filtered and left to sit (pH roughly 2) at 25° C., and, within a week, crystals suitable for single crystal X-ray analysis appeared. The solution was filtered again, washed with H2O, dried, and weighed (212 mg 44%).
Compound (1) obtained in Example 2 (100 mg 0.18 mmol) was dissolved in 4 cm^3 of methanol and added to an equal-molar solution of KSCN (17.6 mg 0.180 mmol) in 4 cm^3 of water. The reaction mixture was allowed to stir at 50° C. for 5 hours. The mixture was filtered and the solution was left standing at room temperature until crystals appeared. The obtained crystals were removed by filtration. Yield: 60.00 mg (52%). Elemental analysis (% calcd., found for PtC5H10N3O4SAs): C (12.56, 12.37), H (2.11, 1.97), N (8.78, 8.56). NMR data: ^1H NMR (600 MHz, [D6]DMSO): δ 2.21 (s, 6H, CH3), 7.70 (s, 2H, NH), 9.20 (s, 2H, OH). ^13C NMR (150 MHz, [D6]DMSO) δ 17.5 (CH3), 117.7 (SCN), 172.6 (CO); ^195Pt NMR (129 MHz, [D6]DMSO) δ −3861 ppm (s, 1Pt); UV/Vis (methanol-water=1:1): λ1=285 nm (ε=4217 dm^3 mol^−1 cm^−1); λ2=225 nm (ε=15919 dm^3 mol^−1 cm^−1), shoulder at 265 nm.

[7] = system: panel of human cancer cell lines; assay: Anticancer activity in a panel of human cancer cell lines; assay type: cell-based
Method: as §1
The cytotoxicities of compound (1), cisplatin, and As2O3 were assessed by MTS assay using the CellTiter 96 Aqueous MTS (Promega). The 100 μL aliquots of cell suspension (1.0×10^5 cells/ml) were plated in 96-well tissue culture plates in the incubator overnight at 37° C. in a humidified atmosphere of 5% of CO2. The serial dilutions of compound (1), cisplatin, and As2O3 in appropriate media were transferred to the cells. The MTS solution (20 μL) was added after 72 hours and the absorbance was measured at 495 nm 4 hours later. […] The plates were shaken for 2 minutes and allowed to sit for activation prior to reading for 10 minutes. Plates were read on Biotek Synergy H1 (Biotek, Wenooski, Vt.) reader capable of luminescence detection.

Row | Compound | IC50 [1] [µM] | IC50 [2] [µM] | IC50 (glioblastoma U-87 cells) [µM] | IC50 (colon HCT-116 cells) [µM] | IC50 [3] [µM] | IC50 [4] [µM] | share of isomer in equilibrium mixture [5] [%] | solubility in organic solvents [6] | resistance factor (RF) ([1]; ovarian A2780 and A2780^CP cell lines, RF value of <2 denotes no cross-resistance) | anticancer activity in a panel of human cancer cell lines [7] | solubility in water [6]
1 | N.N.[Cl][Pt][Cl] [Cisplatin, Cis-diamminedichloroplatinum(II)] | 47.3 ± 2.1 | 22.3 ± 2.8 | 9.6 ± 0.8 | 5.5 ± 1.3 | 1.9 ± 0.1 | 3.1 ± 1.1 |  |  |  |  | 
2 | [Pt(μ-NHC(CH3)O)2(NCS)As(OH)2] [Compound (6)] |  |  |  |  |  |  | 36 |  |  |  | 
3 | [Pt(μ-NHC(CH3)O)2(SCN)As(OH)2] [Compound (5)] |  |  |  |  |  |  | 64±1.2 | DMSO and methanol |  |  | 
4 | [Pt(μ-NHC(CH3)O)2ClAs(OH)2] [Compound (1)] | 21.4 ± 1.8 | 9.5 ± 0.1 | 0.37 ± 0.11 | 1.6 ± 0.4 | 4.5 ± 1 | 20.3 ± 4 |  | soluble in DMSO, methanol, ethanol | 1.1 | significant anticancer activity | partially in water
5 | [Pt(μ-NHC(CH3CH2)O)2ClAs(OH)2] [Compound (2)] |  |  |  |  |  |  |  | soluble in methanol, DMSO |  | significant anticancer activity | partially soluble in H2O
6 | arsenic trioxide [As2O3] | 21.6 ± 1.4 | 11.9 ± 2.3 | 1.6 ± 2.9 | 9.4 ± 0.9 | 7.1 ± 0.2 | 17.1 ± 1.5 |  |  |  |  | 
